Measured values reported in patent US20260062412A1, “NITROGEN-CONTAINING HETEROCYCLIC COMPOUND HAVING MYT1 INHIBITORY ACTIVITY” (CHUGAI SEIYAKU KABUSHIKI KAISHA, priority 2023, published 2026).

What follows are compounds tested against MYT1 protein (Homo sapiens (Human), UniProt Q99640) (assay: Test for binding to ATP binding site of MYT1 (Kinase Tracer 178 / Eu-Anti-GST antibody TR-FRET)). Conditions: ATP binding site of MYT1, 30 minutes at room temperature.
Sequence of MYT1 protein (Q99640 whole entry): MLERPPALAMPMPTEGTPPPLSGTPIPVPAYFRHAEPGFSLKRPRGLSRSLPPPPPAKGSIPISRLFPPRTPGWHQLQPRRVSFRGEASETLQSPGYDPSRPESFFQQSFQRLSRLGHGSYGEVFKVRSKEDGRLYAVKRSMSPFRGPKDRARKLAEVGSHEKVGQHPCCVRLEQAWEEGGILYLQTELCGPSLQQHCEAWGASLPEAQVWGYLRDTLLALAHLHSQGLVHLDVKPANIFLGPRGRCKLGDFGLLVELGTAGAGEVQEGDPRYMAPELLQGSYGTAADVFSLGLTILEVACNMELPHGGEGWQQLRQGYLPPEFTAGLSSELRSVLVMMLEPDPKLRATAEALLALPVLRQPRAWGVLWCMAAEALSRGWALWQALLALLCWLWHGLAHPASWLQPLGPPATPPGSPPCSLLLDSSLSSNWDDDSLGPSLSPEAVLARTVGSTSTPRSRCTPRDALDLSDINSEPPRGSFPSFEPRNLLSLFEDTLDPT

`Nc1c(-c2ccc(F)c3[nH]ncc23)c2cc(N3CC4(COC4)C3)c3ncccc3c2[nH]c1=O` [Compound C118, 3-Amino-4-(7-fluoro-1H-indazol-4-yl)-6-(2-oxa-6-azaspiro[3,3]heptan-6-yl)-1H-1,7-one] and `Nc1c(-c2ccc(F)c3[nH]ncc23)c2cc(N3CCC4(COC4)C3)c3ncccc3c2[nH]c1=O` [Compound C120, 3-Amino-4-(7-fluoro-1H-indazol-4-yl)-6-(2-oxa-7-azaspiro[3.4]octan-7-yl)-1H-1,7-one] are within 1.5-fold of each other in IC50: 2.3 nM for the first, 2.9 nM for the second.

First: Nc1c(-c2ccc(F)c3[nH]ncc23)c2cc(N3CCC(N4CCCC4)CC3)c3ncccc3c2[nH]c1=O [Compound C119, 3-Amino-4-(7-fluoro-1H-indazol-4-yl)-6-(4-pyrrolidin-1-ylpiperidin-1-yl)-1H-1,7-phenanthrolin-2-one]
Second: Nc1c(-c2ccc(F)c3[nH]ncc23)c2cc(N3CCCCC3)c3ncccc3c2[nH]c1=O [Compound C125, 3-Amino-4-(7-fluoro-1H-indazol-4-yl)-6-piperidin-1-yl-1H-1,7-phenanthrolin-2-one]
The IC50 of the first is 2.7-fold lower: 2.2 nM for the first, 5.9 nM for the second. The first is the more potent here.

Compared with `Nc1c(-c2ccc(F)c3[nH]ncc23)c2cc(N3CCC3)c3ncccc3c2[nH]c1=O` [Compound C121, 3-Amino-6-(azetidin-1-yl)-4-(7-fluoro-1H-indazol-4-yl)-1H-1,7-phenanthrolin-2-one], `Nc1c(-c2ccc(F)c3[nH]ncc23)c2cc(N3CCOCC3)c3ncccc3c2[nH]c1=O` [Compound C122, 3-Amino-4-(7-fluoro-1H-indazol-4-yl)-6-morpholin-4-yl-1H-1,7-phenanthrolin-2-one 2,2,2-trifluoroacetate] is 1.5-fold higher in IC50: 3 nM for the first, 4.5 nM for the second.

`Nc1c(-c2ccc(F)c3[nH]ncc23)c2cc(N3CC(F)(F)C3)c3ncccc3c2[nH]c1=O` [Compound C123, 3-Amino-6-(3,3-difluoroazetidin-1-yl)-4-(7-fluoro-1H-indazol-4-yl)-1H-1,7-phenanthrolin-2-one] and `Nc1c(-c2ccc(F)c3[nH]ncc23)c2cc(N3CCC(F)(F)CC3)c3ncccc3c2[nH]c1=O` [Compound C126, 3-Amino-6-(4,4-difluoropiperidin-1-yl)-4-(7-fluoro-1H-indazol-4-yl)-1H-1,7-phenanthrolin-2-one] are within 1.5-fold of each other in IC50: 3.4 nM for the first, 4.7 nM for the second.

Compared with `Nc1c(-c2ccc(F)c3[nH]ncc23)c2cc(N3CCS(=O)(=O)CC3)c3ncccc3c2[nH]c1=O` [Compound C124, 3-Amino-6-(1,1-dioxo-1,4-thiazinan-4-yl)-4-(7-fluoro-1H-indazol-4-yl)-1H-1,7-phenanthrolin-2-one], `Nc1c(-c2ccc(F)c3[nH]ncc23)c2cc(N3CCC(C(F)(F)F)CC3)c3ncccc3c2[nH]c1=O` [Compound C131, 3-Amino-4-(7-fluoro-1H-indazol-4-yl)-6-[4-(trifluoromethyl)piperidin-1-yl]-1H-1,7-phenanthrolin-2-one] is 9.7-fold higher in IC50: 3.4 nM for the first, 33 nM for the second.

First: CS(=O)(=O)Nc1cc2c(-c3ccc(F)c4[nH]ncc34)c(N)c(=O)[nH]c2c2cccnc12 [Compound C127, N-[3-Amino-4-(7-fluoro-1H-indazol-4-yl)-2-oxo-1H-1,7-phenanthrolin-6-yl]methanesulfonamide]
Second: Nc1c(-c2ccc(F)c3[nH]ncc23)c2cc(NS(=O)(=O)C3CC3)c3ncccc3c2[nH]c1=O [Compound C130, N-[3-amino-4-(7-fluoro-1H-indazol-4-yl)-2-oxo-1H-1,7-phenanthrolin-6-yl]cyclopropanesulfonamide]
The IC50 of the first is 2.5-fold lower: 1.5 nM for the first, 3.7 nM for the second.

Compared with `Nc1c(-c2ccc(F)c3[nH]ncc23)c2cc(N3CC4CC(C3)O4)c3ncccc3c2[nH]c1=O` [Compound C128, 3-Amino-4-(7-fluoro-1H-indazol-4-yl)-6-(6-oxa-3-azabicyclo[3.1.1]heptan-3-yl)-1H-1,7-phenanthrolin-2-one], `Nc1c(-c2ccc(F)c3[nH]ncc23)c2cc(N3C4COCC3C4)c3ncccc3c2[nH]c1=O` [Compound C129, 3-Amino-4-(7-fluoro-1H-indazol-4-yl)-6-(3-oxa-6-azabicyclo[3.1.1]heptan-6-yl)-1H-1,7-one] is 1.8-fold lower in IC50: 5.8 nM for the first, 3.3 nM for the second.
